The target of data set [1] is T1, EcMaeB (Escherichia coli, UniProt P76558).
T1 construct: His-tag (C); made in house; host or cells: E. coli BL21(DE3)
T1 sequence (P76558 1-759): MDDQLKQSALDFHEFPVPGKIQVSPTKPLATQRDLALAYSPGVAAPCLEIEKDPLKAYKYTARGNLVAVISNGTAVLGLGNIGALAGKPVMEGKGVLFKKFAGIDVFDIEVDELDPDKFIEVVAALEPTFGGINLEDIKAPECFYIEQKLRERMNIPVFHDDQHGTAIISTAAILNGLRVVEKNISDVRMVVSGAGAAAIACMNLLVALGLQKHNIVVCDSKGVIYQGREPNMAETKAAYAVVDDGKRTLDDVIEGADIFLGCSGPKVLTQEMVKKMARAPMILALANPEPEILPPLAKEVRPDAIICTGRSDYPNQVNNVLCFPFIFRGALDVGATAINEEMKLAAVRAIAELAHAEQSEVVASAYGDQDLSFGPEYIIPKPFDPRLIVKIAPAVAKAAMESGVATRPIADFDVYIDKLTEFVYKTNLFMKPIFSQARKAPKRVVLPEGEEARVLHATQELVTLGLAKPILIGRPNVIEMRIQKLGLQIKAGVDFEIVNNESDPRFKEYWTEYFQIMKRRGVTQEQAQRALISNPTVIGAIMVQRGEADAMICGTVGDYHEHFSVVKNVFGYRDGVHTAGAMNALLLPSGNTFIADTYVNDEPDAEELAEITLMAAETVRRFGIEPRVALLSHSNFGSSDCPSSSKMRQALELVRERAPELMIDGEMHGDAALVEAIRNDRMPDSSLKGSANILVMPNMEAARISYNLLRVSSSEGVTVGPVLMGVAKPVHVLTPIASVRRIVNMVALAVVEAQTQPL
More on the design: method as in PMID 17557829. The note with it: previous study; cited from earlier work.

Data set [2] concerns the target T1, EcMaeB. As to the kind of experiment: Enzyme kinetic parameters (Michaelis-Menten, substrate inhibition, empirical Hill plots). It is filed as biochemical. As to the method:
(§1) Spectrophotometric assays were used to monitor the oxidative decarboxylation of L-malate to pyruvate using a SpectraMax M2, UV-Visible spectrophotometer (Molecular Devices) operated by SoftMax Pro Software with kinetic mode. All assays recorded the Δabsorbance at 340 nm (NADPH) at 30 °C. Assays were initiated by the addition of enzyme to the otherwise complete reaction mixture. […] Acetyl-CoA was tested at 5 μM.
(§2) For this substrate inhibition model, x should be fixed. […] The plots shown in Fig. S1F were fitted to the empirical Hill equation: v0=Vmax·[malate]^h/(K0.5h+[malate]^h) where K0.5 indicates the substrate concentration for half-saturation. When h is equal to 1, K0.5 matches Michaelis constant Km.

The test system of the next data set is DME. More on the design: method as in PMID 10407149. The conditions noted are these: cited from earlier work.
In the next data set the target is T2, BbMaeB (Bdellovibrio bacteriovorus, UniProt A0A1Z3N8R4).
T2 sequence (A0A1Z3N8R4 1-776): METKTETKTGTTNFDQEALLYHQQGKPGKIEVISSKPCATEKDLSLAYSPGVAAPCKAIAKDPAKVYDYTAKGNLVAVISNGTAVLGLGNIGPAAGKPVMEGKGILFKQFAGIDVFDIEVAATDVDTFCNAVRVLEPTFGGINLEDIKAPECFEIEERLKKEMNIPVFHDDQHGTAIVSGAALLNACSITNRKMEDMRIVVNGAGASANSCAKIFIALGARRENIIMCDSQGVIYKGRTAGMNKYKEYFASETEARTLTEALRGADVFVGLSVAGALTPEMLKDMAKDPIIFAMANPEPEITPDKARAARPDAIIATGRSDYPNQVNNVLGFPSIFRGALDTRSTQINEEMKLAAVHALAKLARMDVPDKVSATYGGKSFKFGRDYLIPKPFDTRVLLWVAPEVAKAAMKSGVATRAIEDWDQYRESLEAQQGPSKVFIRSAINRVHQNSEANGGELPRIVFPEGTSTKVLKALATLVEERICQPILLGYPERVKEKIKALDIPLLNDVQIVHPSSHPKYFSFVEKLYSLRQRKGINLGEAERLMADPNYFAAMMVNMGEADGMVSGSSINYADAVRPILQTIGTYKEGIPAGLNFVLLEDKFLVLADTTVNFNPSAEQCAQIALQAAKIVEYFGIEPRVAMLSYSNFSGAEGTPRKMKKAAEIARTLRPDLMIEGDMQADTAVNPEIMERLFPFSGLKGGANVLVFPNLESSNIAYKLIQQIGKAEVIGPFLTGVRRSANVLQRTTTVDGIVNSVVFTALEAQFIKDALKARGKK
As to the kind of experiment: Enzyme kinetic parameters (Michaelis-Menten, substrate inhibition, empirical Hill plots). It is filed as biochemical, Bdellovibrio bacteriovorus strain SSB218315. Here is the method:
as §1, §2

Data set [3] deals with the molecule itself. As to the kind of experiment: crystal structure; EcMaeB without cofactors and acetyl-CoA; 20 mg/ml protein, 0.2 M potassium chloride pH 7.0, 20% v/v PEG 3350, 20 °C; homohexamer.
Substrate in data set [4]: O=C(O)C[C@H](O)C(=O)O
As to the kind of experiment: Enzyme kinetic parameters (Michaelis-Menten, substrate inhibition, empirical Hill plots). It counts as biochemical, Escherichia coli. The note with it: other: EcMaeB; substrate inhibition plot, NADP+ fixed 0.5 mM, without acetyl-CoA; pH 7.5; 30.0 °C.

Substrate in data set [5]: O=C(O)C[C@H](O)C(=O)O
The description is as above. The conditions noted are these: other: BbMaeB; substrate inhibition plot, NADP+ fixed 0.5 mM, without acetyl-CoA; pH 7.5; 30.0 °C. It is filed as biochemical, Bdellovibrio bacteriovorus strain SSB218315.

The stoichiometry N is the number of molecules, sites or subunits per partner or assembly. Broadly, the Km is the concentration of substrate that gives half-maximal velocity.

In the case of `[Mg+2]` [Mg^2+], at EcMaeB [1], the “concentration at which EcMaeB activity is inhibited” value is on record as “above 4 mM”. The “effect of different Mg2+ concentrations on kinetic parameters” value at EcMaeB [2] is reported as “no significant changes in kinetic parameters”. With `CCCC(=O)SCCNC(=O)CCNC(=O)[C@H](O)C(C)(C)COP(=O)(O)OP(=O)(O)OC[C@H]1O[C@@H](n2cnc3c(N)ncnc32)[C@H](O)[C@@H]1OP(=O)(O)O` [butyryl-CoA], in the data set with DME, the “effect on DME activity” value was “inhibited”. For the molecule `O=C(O)C[C@H](O)C(=O)O` [malate, L-malate], the “K0.5 from the empirical Hill equation” value on BbMaeB (in the presence of acetyl-CoA, 0.5 mM NADP+, 300 nM enzyme) is 7.44 ± 1.21 mM; at EcMaeB [2] (EcMaeB, in the presence of acetyl-CoA, 0.5 mM NADP+, 300 nM enzyme), 18.1 ± 3.20 mM. `CCC(=O)SCCNC(=O)CCNC(=O)[C@H](O)C(C)(C)COP(=O)(O)OP(=O)(O)OC[C@H]1O[C@@H](n2cnc3c(N)ncnc32)[C@H](O)[C@@H]1OP(=O)(O)O` [propionyl-CoA]: the “effect on DME activity” value in the data set with DME is “inhibited”. On to NADP^+, for which the “change of Km for NADP+ with Mn2+ instead of Mg2+” value at BbMaeB (5 mM MnCl2) was “approximately doubled”; on EcMaeB [2] (EcMaeB, 5 mM MnCl2), “approximately doubled”.

B1: malic enzyme B (MaeB) from Escherichia coli (enzyme, UniProt P76558 1-759, looked up)
chain: MDDQLKQSALDFHEFPVPGKIQVSPTKPLATQRDLALAYSPGVAAPCLEIEKDPLKAYKYTARGNLVAVISNGTAVLGLGNIGALAGKPVMEGKGVLFKKFAGIDVFDIEVDELDPDKFIEVVAALEPTFGGINLEDIKAPECFYIEQKLRERMNIPVFHDDQHGTAIISTAAILNGLRVVEKNISDVRMVVSGAGAAAIACMNLLVALGLQKHNIVVCDSKGVIYQGREPNMAETKAAYAVVDDGKRTLDDVIEGADIFLGCSGPKVLTQEMVKKMARAPMILALANPEPEILPPLAKEVRPDAIICTGRSDYPNQVNNVLCFPFIFRGALDVGATAINEEMKLAAVRAIAELAHAEQSEVVASAYGDQDLSFGPEYIIPKPFDPRLIVKIAPAVAKAAMESGVATRPIADFDVYIDKLTEFVYKTNLFMKPIFSQARKAPKRVVLPEGEEARVLHATQELVTLGLAKPILIGRPNVIEMRIQKLGLQIKAGVDFEIVNNESDPRFKEYWTEYFQIMKRRGVTQEQAQRALISNPTVIGAIMVQRGEADAMICGTVGDYHEHFSVVKNVFGYRDGVHTAGAMNALLLPSGNTFIADTYVNDEPDAEELAEITLMAAETVRRFGIEPRVALLSHSNFGSSDCPSSSKMRQALELVRERAPELMIDGEMHGDAALVEAIRNDRMPDSSLKGSANILVMPNMEAARISYNLLRVSSSEGVTVGPVLMGVAKPVHVLTPIASVRRIVNMVALAVVEAQTQPL
notes: MaeB of E. coli, gene amplified from genomic DNA of strain SHuffle T7; Cloned in pET-28a(+); Homohexamer in the crystal and in cryo-EM; also called EcMaeB; EcMaeBapo; source: E. coli BL21(DE3), purified (HisTrap TALON, size-exclusion chromatography)
Turning to B1, the “stoichiometry N” value in data set [3] turned out to be 6. The Km in data set [4] came to 20.7 ± 8.83 mM.

B2: BbMaeB (Bdellovibrio bacteriovorus) (protein)
chain: METKTETKTGTTNFDQEALLYHQQGKPGKIEVISSKPCATEKDLSLAYSPGVAAPCKAIAKDPAKVYDYTAKGNLVAVISNGTAVLGLGNIGPAAGKPVMEGKGILFKQFAGIDVFDIEVAATDVDTFCNAVRVLEPTFGGINLEDIKAPECFEIEERLKKEMNIPVFHDDQHGTAIVSGAALLNACSITNRKMEDMRIVVNGAGASANSCAKIFIALGARRENIIMCDSQGVIYKGRTAGMNKYKEYFASETEARTLTEALRGADVFVGLSVAGALTPEMLKDMAKDPIIFAMANPEPEITPDKARAARPDAIIATGRSDYPNQVNNVLGFPSIFRGALDTRSTQINEEMKLAAVHALAKLARMDVPDKVSATYGGKSFKFGRDYLIPKPFDTRVLLWVAPEVAKAAMKSGVATRAIEDWDQYRESLEAQQGPSKVFIRSAINRVHQNSEANGGELPRIVFPEGTSTKVLKALATLVEERICQPILLGYPERVKEKIKALDIPLLNDVQIVHPSSHPKYFSFVEKLYSLRQRKGINLGEAERLMADPNYFAAMMVNMGEADGMVSGSSINYADAVRPILQTIGTYKEGIPAGLNFVLLEDKFLVLADTTVNFNPSAEQCAQIALQAAKIVEYFGIEPRVAMLSYSNFSGAEGTPRKMKKAAEIARTLRPDLMIEGDMQADTAVNPEIMERLFPFSGLKGGANVLVFPNLESSNIAYKLIQQIGKAEVIGPFLTGVRRSANVLQRTTTVDGIVNSVVFTALEAQFIKDALKARGKK
Turning to B2, the Km in data set [5] is listed as 6.22 ± 1.55 mM.

Source of the values: paper PMC12704298, “Divergent acetyl-CoA binding modes mediate allosteric inhibition of bacterial hybrid-type malic enzymes” (The Journal of Biological Chemistry, 2025).
